# Data as given in US6608086B2, “Dihydropyridines and new uses thereof” (Synaptic Pharmaceutical Corporation, priority 1993, dated 2003).
# Where a name gives a salt, the structure may show the parent alone. Read-outs that look alike come from different tables or passages of the source.
# Experiments:
# [1] = tested on: canine prostate; experiment: In vivo dog prostate model: inhibition of phenylephrine-induced increase in urethral pressure in anesthetized dogs
# Experimental: Protocol for In Vivo Evaluation of Compounds in Canine Prostate
# Adult male mongrel dogs more than one year of age were chosen for the model. After induction of general anesthesia using sodium pentobarbital (25 mg/Kg i.v.), the animals were intubated and allowed to breathe spontaneously. An arterial catheter was inserted via the femoral artery to monitor blood pressure and i.v. line was inserted into the leg for fluid and drug administration. A constant saline infusion was maintained at 40 to 50 mL/h. Next, a seven cm lower abdominal incision was made one cm lateral to the penis.
# The bladder, prostate and a short segment of urethra were identified and isolated, without damage to the nerves or blood vessels. A cystotomy incision was made through which the pressure catheter was inserted and positioned in the prostatic urethra. The cystotomy was not closed, but the wound edges were sutured to stop bleeding. The tip of the catheter was positioned just distal to the prostate and secured in place with an O-silk tie around the urethra. A second holding suture at the bladder neck secured the catheter in place.
# Fluid, either water or saline, was pumped by a Harvard infusion pump at 0.1 mL/min through a Gould pressure transducer into the catheter. The fluid exists at a port in the catheter which is in the prostatic urethra. Occlusion of the port, by contraction of the prostate, blocks the flow and a pressure wave is created. This pressure is transmitted back through the catheter to the transducer which is attached to a Gould recorder. Squeezing the prostate gland caused an increase in urethral pressure which verified the correct position in the urethra.
# The compounds were tested as follows: A dose response curve was first generated for phenylephrine alone, in doses ranging from one μg/Kg to 50 μg/Kg. The absolute rise in urethral pressure was recorded for each dose and the next dose given when the urethral pressure returned to baseline. Phenylephrine dose response curves were generated in all animals tested. Increasing doses of compounds were then given, and the phenylephrine dose response curve repeated in the prepense of each dose of the compound. No animal received more than one compound; four animals were used to test each compound. To test for tachyphylaxis, four separate dogs were challenged with repeated phenylephrine doses for six hrs, the usual length of each experiment. From the dose-effect data, the inhibition constant (Ki) and the median-effect dose (ED50) were calculated. Both the Ki and ED50 values given are calculated by using microcomputer software and an IBM-PC.
# [2] = target: human prostatic tissue; experiment: In vitro human prostate model: block of phenylephrine-induced contraction of human prostatic tissue; assay type: cell-based
# Source text: The protocol for these experiments is given below.
# Functional Properties of α1 Antagonists in the Human Prostate
# The efficacy of α1 adrenergic antagonists for the treatment of benign prostatic hyperplasia (BPH) is related to their ability to elicit relaxation of prostate smooth muscle. An index of this efficacy can be obtained by determining the potency of al antagonists to antagonize the contraction of human prostatic tissue induced by an α1 agonist “in vitro”. Furthermore, by comparing the potency of subtype selective α1 antagonists in binding assays using human α1 receptors with their potency to inhibit agonist-induced smooth muscle contraction, it is possible to determine which of the α1 adrenergic receptor subtypes is involved in the contraction of prostate smooth muscle.
# Prostatic adenomas were obtained at the time of surgery from patients with symptomatic BPH. […] The baths were maintained at 37° C. and continuously oxygenated with 5% CO2 and 95% O2. Isometric tension was measured with a Grass Instrument FT03 force transducer interfaced with a computer. Tissue strips were contracted with varying concentrations of phenylephrine after incubating for 20 minutes in the absence and presence of at least three different concentrations of antagonist. Dose-response curves for phenylephrine were constructed, and the antagonist potency (pA2) was estimated by the dose-ratio method. The concentration of some antagonists in the tissue bath was assessed by measuring the displacement of [3H]prazosin by aliquots of the bath medium, using membrane preparations of the cloned human α1C receptor. This control was necessary to account for losses of antagonist due to adsorption to the tissue bath and/or metabolism during the time the antagonists were equilibrated with the prostate tissue.
# [3] = target: T1, L-type calcium channel (Rattus norvegicus, UniProt P22002); experiment: Competition binding of [3H]nitrendipine to membrane fragments of rat cardiac muscle
# T1 construct: membrane fragments of rat cardiac muscle; from tissue; host or cells: rat cardiac muscle membranes
# T1 sequence (P22002 whole entry, other chains not shown, the tested form may be a part): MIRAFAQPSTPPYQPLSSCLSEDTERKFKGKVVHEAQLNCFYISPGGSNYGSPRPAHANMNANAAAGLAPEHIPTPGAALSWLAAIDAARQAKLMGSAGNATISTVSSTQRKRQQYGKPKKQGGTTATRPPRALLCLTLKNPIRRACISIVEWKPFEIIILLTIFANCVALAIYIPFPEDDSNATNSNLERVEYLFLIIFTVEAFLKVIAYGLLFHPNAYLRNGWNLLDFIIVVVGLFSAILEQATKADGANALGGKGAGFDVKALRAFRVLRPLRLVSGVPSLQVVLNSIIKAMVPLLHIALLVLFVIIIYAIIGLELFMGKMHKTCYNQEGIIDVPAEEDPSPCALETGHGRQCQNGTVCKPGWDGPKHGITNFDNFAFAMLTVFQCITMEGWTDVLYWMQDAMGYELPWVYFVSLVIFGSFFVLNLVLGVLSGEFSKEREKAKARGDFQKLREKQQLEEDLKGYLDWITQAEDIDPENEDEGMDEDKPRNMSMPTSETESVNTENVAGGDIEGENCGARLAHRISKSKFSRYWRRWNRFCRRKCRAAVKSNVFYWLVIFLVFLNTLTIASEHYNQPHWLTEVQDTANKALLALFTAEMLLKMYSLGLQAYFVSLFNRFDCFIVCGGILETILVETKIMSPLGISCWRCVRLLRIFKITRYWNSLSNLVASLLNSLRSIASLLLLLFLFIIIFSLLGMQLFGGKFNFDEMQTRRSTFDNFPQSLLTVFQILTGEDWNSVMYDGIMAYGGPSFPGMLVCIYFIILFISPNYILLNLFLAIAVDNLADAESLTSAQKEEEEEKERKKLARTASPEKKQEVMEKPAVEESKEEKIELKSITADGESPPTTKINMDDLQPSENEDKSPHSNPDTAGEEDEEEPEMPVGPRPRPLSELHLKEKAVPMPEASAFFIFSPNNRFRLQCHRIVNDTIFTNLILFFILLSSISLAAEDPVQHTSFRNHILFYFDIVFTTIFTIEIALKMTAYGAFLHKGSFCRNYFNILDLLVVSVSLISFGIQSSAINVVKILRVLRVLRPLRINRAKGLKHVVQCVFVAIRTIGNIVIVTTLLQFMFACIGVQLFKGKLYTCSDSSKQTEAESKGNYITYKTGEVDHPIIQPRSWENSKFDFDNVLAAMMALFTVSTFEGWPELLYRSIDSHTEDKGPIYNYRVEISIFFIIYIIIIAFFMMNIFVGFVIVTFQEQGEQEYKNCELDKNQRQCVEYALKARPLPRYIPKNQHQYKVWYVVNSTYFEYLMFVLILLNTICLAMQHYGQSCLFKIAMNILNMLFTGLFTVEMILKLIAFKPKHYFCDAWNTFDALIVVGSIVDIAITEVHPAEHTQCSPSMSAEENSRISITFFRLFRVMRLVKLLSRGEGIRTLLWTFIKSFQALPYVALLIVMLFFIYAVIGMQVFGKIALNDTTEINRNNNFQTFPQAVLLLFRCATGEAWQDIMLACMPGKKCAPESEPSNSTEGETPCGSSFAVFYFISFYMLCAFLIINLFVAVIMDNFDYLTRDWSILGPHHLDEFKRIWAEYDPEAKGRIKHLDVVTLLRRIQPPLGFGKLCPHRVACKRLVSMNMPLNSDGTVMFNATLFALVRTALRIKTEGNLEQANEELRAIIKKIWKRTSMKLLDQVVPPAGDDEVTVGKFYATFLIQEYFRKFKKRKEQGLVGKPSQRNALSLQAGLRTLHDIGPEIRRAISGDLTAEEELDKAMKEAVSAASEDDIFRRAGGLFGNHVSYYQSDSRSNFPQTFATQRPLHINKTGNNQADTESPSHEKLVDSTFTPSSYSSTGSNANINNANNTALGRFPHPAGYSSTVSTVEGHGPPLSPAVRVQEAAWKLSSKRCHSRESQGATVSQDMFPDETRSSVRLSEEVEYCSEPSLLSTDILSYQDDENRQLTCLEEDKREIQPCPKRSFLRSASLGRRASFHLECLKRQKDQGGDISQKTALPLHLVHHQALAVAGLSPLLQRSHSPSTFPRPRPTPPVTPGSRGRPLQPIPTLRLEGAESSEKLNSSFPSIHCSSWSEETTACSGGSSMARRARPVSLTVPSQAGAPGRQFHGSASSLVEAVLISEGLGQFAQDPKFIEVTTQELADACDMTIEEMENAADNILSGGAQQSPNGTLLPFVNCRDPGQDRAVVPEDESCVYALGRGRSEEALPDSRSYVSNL
# T1 sequence (P54290 25-944 partner limits assumed, other chains not shown): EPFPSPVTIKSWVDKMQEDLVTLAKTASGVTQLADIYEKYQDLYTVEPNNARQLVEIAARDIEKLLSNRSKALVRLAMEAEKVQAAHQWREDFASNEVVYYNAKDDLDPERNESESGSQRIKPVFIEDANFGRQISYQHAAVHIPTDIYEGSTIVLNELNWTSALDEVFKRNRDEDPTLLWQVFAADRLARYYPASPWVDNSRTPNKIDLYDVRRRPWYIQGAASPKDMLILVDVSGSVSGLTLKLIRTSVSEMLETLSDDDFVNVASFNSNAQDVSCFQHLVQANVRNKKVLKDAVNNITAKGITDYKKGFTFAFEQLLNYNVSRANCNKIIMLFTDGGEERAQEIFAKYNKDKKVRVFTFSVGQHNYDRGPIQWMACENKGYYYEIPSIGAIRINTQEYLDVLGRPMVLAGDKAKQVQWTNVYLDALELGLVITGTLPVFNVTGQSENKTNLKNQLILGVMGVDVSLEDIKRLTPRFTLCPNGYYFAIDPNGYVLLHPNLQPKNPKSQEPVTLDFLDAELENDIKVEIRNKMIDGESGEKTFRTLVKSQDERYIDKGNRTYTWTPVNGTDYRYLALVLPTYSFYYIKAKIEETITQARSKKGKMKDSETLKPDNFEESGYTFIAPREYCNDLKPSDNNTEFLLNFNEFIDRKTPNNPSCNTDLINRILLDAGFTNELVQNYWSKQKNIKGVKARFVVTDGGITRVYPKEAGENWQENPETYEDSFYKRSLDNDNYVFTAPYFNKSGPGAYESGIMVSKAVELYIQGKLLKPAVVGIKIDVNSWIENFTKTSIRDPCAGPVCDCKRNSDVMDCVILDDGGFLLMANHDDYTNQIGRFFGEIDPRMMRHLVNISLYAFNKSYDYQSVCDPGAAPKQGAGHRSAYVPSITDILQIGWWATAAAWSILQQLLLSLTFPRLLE
# T1 sequence (P54290 945-1091 partner limits assumed, other chains not shown): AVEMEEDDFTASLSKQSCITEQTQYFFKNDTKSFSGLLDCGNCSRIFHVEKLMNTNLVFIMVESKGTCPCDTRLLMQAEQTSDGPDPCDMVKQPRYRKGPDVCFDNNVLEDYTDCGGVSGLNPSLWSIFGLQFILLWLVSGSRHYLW
SMILES,"Ki ([1]; In Vivo Dog Prostate Model, phenylephrine-induced contraction, urethral pressure) [nmol/kg]","pKi ([2]; In Vitro Human Prostate Model, phenylephrine-induced contraction)","Ki ([3]; [3H]nitrendipine, rat cardiac muscle membranes, SEM and n in lines below, read-out: pKi Ca (converted)) [µM]","Urethral Pressure K i ([1]; inhibition of phenylephrine-induced increases in urethral pressure, anesthetized dogs) [nmol/kg]",pA2 ([2]; block of phenylephrine-induced contraction of human prostate),Ki ([3]; pKi Ca) [µM]
"COC(=O)C1=C(C)NC(C)=C(C(=O)NCCCN2CCC(c3ccccc3)CC2)C1c1ccc([N+](=O)[O-])cc1 (racemic) [(±)-45, (±)-1,4-Dihydro-3-methoxycarbonyl-2,6-dimethyl-4-(4-nitrophenyl)-5-{N-[3-(4-phenylpiperidin-1-yl)propyl]}carboxamidopyridine hydrochloride hemihydrate]",12,8.07 ± 0.13,7.41,–,–,–
"CNC(=O)C1=C(C)NC(C)=C(C(=O)NCCCN2CCC(c3ccccc3)(c3ccccc3)CC2)C1c1ccc([N+](=O)[O-])cc1 (stereo not drawn) [Example 38, 1,4-Dihydro-2,6-dimethyl-5-(N-methyl)carboxamido-4-(4-nitrophenyl)-3-{N-[3-(4,4-diphenylpiperidin-1-yl)propyl]}carboxamidopyridine]",–,–,–,8 ± 1.5,8.98 ± 0.06,7.08
